In ChEMBL document CHEMBL1201862, “PubChem BioAssay data set” (2004):
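All cell lines were grown in 96-well plates and treated with compound for 48 hours. GI50 marks 50% less growth.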 The source made the active and inactive calls. Rule as the data show it: active = GI50 up to about 1.1 µM and inactive = higher.

Assays:
Assay in all cases: NCI tumour cell line growth inhibition, 48 h
HCT-15 = tested on: HCT-15
XF498 = tested on: XF498
SK-OV-3 = tested on: SK-OV-3
SR = tested on: SR
CAKI-1 = tested on: CAKI-1
KM12 = tested on: KM12
M19-MEL = tested on: M19-MEL
DLD-1 = tested on: DLD-1
IGROV-1 = tested on: IGROV-1
UO-31 = tested on: UO-31
SNB-19 = tested on: SNB-19
K562 = tested on: K562
HOP-92 = tested on: HOP-92
Malme-3M = tested on: Malme-3M
U-251 = tested on: U-251
COLO 205 = tested on: COLO 205
SK-MEL-28 = tested on: SK-MEL-28
NCI-H522 = tested on: NCI-H522
SW-620 = tested on: SW-620
OVCAR-8 = tested on: OVCAR-8
KM-20L2 = tested on: KM-20L2
DMS-114 = tested on: DMS-114
SK-MEL-5 = tested on: SK-MEL-5
SNB-78 = tested on: SNB-78
HCC 2998 = tested on: HCC 2998
SF-295 = tested on: SF-295
HT-29 = tested on: HT-29
M14 = tested on: M14
OVCAR-4 = tested on: OVCAR-4
CCRF-CEM = tested on: CCRF-CEM
UACC-62 = tested on: UACC-62
SK-MEL-2 = tested on: SK-MEL-2
OVCAR-3 = tested on: OVCAR-3
TK-10 = tested on: TK-10
MOLT-4 = tested on: MOLT-4
RXF 393 = tested on: RXF 393
SN12C = tested on: SN12C
LXFL 529 = tested on: LXFL 529
NCI-H23 = tested on: NCI-H23
OVCAR-5 = tested on: OVCAR-5
ACHN = tested on: ACHN
EKVX = tested on: EKVX
SNB-75 = tested on: SNB-75
A498 = tested on: A498
LOX IMVI = tested on: LOX IMVI
NCI-H226 = tested on: NCI-H226
HL-60 = tested on: HL-60
786-0 = tested on: 786-0
NCI-H460 = tested on: NCI-H460
SF-539 = tested on: SF-539
HCT-116 = tested on: HCT-116
A549 = tested on: A549
SF-268 = tested on: SF-268
RPMI-8226 = tested on: RPMI-8226
HOP-62 = tested on: HOP-62
UACC-257 = tested on: UACC-257
DMS-273 = tested on: DMS-273

Measured: GI50

COc1cc(/C=C(\NC(=O)c2ccccc2)c2nc3cc([N+](=O)[O-])ccc3[nH]2)cc(OC)c1OC
inactive: XF498 > 100 µM | SK-OV-3 78.3 µM | SR 42.2 µM | CAKI-1 68.5 µM | KM12 84.5 µM | M19-MEL > 100 µM | DLD-1 57.3 µM | IGROV-1 > 100 µM | UO-31 23.1 µM | SNB-19 > 100 µM | K562 34.3 µM | HOP-92 57 µM | Malme-3M > 100 µM | U-251 > 100 µM | COLO 205 > 100 µM | SK-MEL-28 > 100 µM | NCI-H522 30.2 µM | SW-620 76.7 µM | OVCAR-8 96.4 µM | KM-20L2 78.7 µM | DMS-114 57.9 µM | SK-MEL-5 96.6 µM | SNB-78 > 100 µM | HCC 2998 > 100 µM | SF-295 > 100 µM | HT-29 > 100 µM | M14 > 100 µM | OVCAR-4 38.5 µM | CCRF-CEM 35.9 µM | UACC-62 > 100 µM | SK-MEL-2 > 100 µM | OVCAR-3 > 100 µM | TK-10 > 100 µM | MOLT-4 29 µM | RXF 393 > 100 µM | SN12C > 100 µM | LXFL 529 35.4 µM | NCI-H23 > 100 µM | OVCAR-5 > 100 µM
40 µM: HCT-15

Cc1cc(N(CCC#N)CCC#N)ccc1/C=C/C(=O)Nc1ccccc1Cl
inactive: XF498 > 100 µM | ACHN > 100 µM | SK-OV-3 > 100 µM | EKVX > 100 µM | CAKI-1 > 100 µM | KM12 > 100 µM | SNB-75 > 100 µM | M19-MEL > 100 µM | DLD-1 > 100 µM | IGROV-1 > 100 µM | A498 > 100 µM | LOX IMVI > 100 µM | UO-31 > 100 µM | SNB-19 > 100 µM | K562 > 100 µM | HOP-92 > 100 µM | NCI-H226 > 100 µM | Malme-3M > 100 µM | U-251 > 100 µM | COLO 205 > 100 µM | SK-MEL-28 > 100 µM | NCI-H522 > 100 µM | SW-620 > 100 µM | OVCAR-8 > 100 µM | KM-20L2 > 100 µM | HL-60 31.4 µM | DMS-114 > 100 µM | SK-MEL-5 > 100 µM | 786-0 > 100 µM | NCI-H460 > 100 µM | SF-539 > 100 µM | HCC 2998 > 100 µM | SF-295 > 100 µM | HT-29 > 100 µM | HCT-116 > 100 µM | M14 > 100 µM | OVCAR-4 > 100 µM | CCRF-CEM 45.5 µM | A549 > 100 µM | UACC-62 > 100 µM | SK-MEL-2 > 100 µM | OVCAR-3 > 100 µM | TK-10 > 100 µM | MOLT-4 > 100 µM | SF-268 > 100 µM | RPMI-8226 > 100 µM | HOP-62 > 100 µM | UACC-257 > 100 µM | SN12C > 100 µM | LXFL 529 > 100 µM | NCI-H23 > 100 µM | DMS-273 > 100 µM | OVCAR-5 > 100 µM
> 100 µM: HCT-15
